Key:
[1] = according to Eisenburg et al., Faraday Symp. Chem. Soc. 17:109-120 (1982); cited from earlier work
[2] = Wettability (wetting time), method of International IDF Standard 87:1979; format: physicochemical; settings: for effect of coating on the wetting time: FIG. 1, coated versus uncoated amino acid; for wetting time: amino acid not coated
Text: The wettability (wetting time) can be determined using the method of International IDF Standard 87:1979.

Compound	Hydrophobicity of amino acids (side chain hydrophobicity, SCH) [1]	effect of coating on the wetting time [2]	wetting time [2]
C[C@H](N)C(=O)O [Ala]	+1.0 kJ/mol	no or only a minor effect	short wetting time
N=C(N)NCCC[C@H](N)C(=O)O [Arg]	-1.79 kcal/mol	–	–
NC(=O)C[C@H](N)C(=O)O [Asn]	-0.645 kcal/mol	–	–
N[C@@H](CC(=O)O)C(=O)O [Asp]	-0.717 kcal/mol	–	–
N[C@@H](CS)C(=O)O [Cys, cysteine]	+0.17 kJ/mol	–	–
N[C@@H](CCC(=O)O)C(=O)O [Glu]	-0.621 kcal/mol	–	–
NCC(=O)O [Gly, glycine]	+0.67 kJ/mol	–	short wetting time
N[C@@H](Cc1c[nH]cn1)C(=O)O [His]	-0.406 kcal/mol	–	–
CC[C@H](C)[C@H](N)C(=O)O [Ile, isoleucine]	+3.1 kJ/mol	–	–
NCCCC[C@H](N)C(=O)O [Lys, lysine]	-1.1 kcal/mol	–	–
CSCC[C@H](N)C(=O)O [Met, methionine]	+1.1 kJ/mol	–	–
N[C@@H](Cc1ccccc1)C(=O)O [Phe, phenylalanine]	+2.5 kJ/mol	–	–
O=C(O)[C@@H]1CCCN1 [Pro]	-0.0693 kcal/mol	–	–
N[C@@H](CO)C(=O)O [Ser]	-0.263 kcal/mol	–	–
C[C@@H](O)[C@H](N)C(=O)O [Thr, threonine]	-0.179 kcal/mol	–	–
N[C@@H](Cc1c[nH]c2ccccc12)C(=O)O [Trp, tryptophan]	+1.5 kJ/mol	–	–
N[C@@H](Cc1ccc(O)cc1)C(=O)O [Tyr]	+0.08 kJ/mol	no or only a minor effect	short wetting time
CC(C)[C@H](N)C(=O)O [Val, valine]	+2.3 kJ/mol	–	–
